Measured values as given in US20070219186A1, “Pyrazolo[1,5-A]pyrimidine derivatives and methods of use thereof” (priority 2006, published 2007).
Where two headings read alike, the source gives them in different places.

Legend:
[1] = biological target: T1, human B-Raf (Homo sapiens, UniProt P15056); assay: B-Raf Kinase to MEK1 ELISA; type: biochemical; conditions: for inhibition at 10 µM: read-out: % Inhib./10 uM; for % Inhib./10 uM: single point assay
T1 construct: Flag; GST; made in house; host or cells: Sf9 insect cells (B-Raf); E. coli (MEK1-GST)
T1 sequence (P15056 whole entry): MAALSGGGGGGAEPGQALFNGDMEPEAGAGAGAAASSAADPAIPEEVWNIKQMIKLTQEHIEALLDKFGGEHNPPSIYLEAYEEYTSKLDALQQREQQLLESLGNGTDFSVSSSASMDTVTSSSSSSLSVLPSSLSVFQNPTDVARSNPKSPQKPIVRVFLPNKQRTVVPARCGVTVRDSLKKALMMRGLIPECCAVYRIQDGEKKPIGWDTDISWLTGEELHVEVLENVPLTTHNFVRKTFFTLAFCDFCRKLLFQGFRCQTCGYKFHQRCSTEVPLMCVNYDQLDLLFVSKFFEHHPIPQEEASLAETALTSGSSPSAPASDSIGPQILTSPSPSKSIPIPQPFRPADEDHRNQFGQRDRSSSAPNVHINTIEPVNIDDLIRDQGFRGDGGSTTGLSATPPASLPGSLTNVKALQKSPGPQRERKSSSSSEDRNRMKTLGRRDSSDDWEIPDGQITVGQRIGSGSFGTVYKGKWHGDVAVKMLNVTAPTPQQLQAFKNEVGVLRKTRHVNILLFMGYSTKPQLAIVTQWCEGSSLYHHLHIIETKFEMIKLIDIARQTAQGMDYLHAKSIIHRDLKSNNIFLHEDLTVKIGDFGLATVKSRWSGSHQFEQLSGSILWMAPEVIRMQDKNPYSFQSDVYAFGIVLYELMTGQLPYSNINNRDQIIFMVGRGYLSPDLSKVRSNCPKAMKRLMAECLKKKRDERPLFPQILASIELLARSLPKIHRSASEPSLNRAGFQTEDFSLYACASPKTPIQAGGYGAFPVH
Procedure, shortened: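 Flag/GST-tagged human B-Raf (Sf9, ~20 ng/point) phosphorylates non-active GST-MEK1 (50 nM final) with ATP and MgCl2 in MOPS pH 7.2 buffer, 60 min at RT. Product is captured on anti-GST plates; MEK1 pSer217/221 is read by phospho-antibody plus europium conjugate (DELFIA).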

[2] = median, cpd concentrations from 10 μM to 30 nM in half log dilutions, read-out: Median IC50

Compound | IC50 [1, 2] [nM] | inhibition at 10 µM [1] [%] | melting point [°C] | IC50 [1] [nM] | % Inhib./10 uM [1] [%]
CN1CC=C(c2cnn3c(-c4cccc(NC(=O)c5cccc(C(F)(F)F)c5)c4)ccnc23)CC1 [Example 306, N-{3-[3-(1-methyl-1,2,3,6-tetrahydropyridin-4-yl)pyrazolo[1,5-a]pyrimidin-7-yl]phenyl}-3-(trifluoromethyl)benzamide] | 851 | 68 | 163 to 165 | – | –
O=C(Nc1cccc(-c2ccnc3c(-c4ccc(CN5CCCC5)cc4)cnn23)c1)c1cccc(C(F)(F)F)c1 [Example 315, N-(3-{3-[4-(pyrrolidin-1-ylmethyl)phenyl]pyrazolo[1,5-a]pyrimidin-7-yl}phenyl)-3-(trifluoromethyl)benzamide] | – | 102 | – | 20.5 | –
O=C(Nc1cccc(-c2ccnc3c(-c4ccc(CN5CCCC5)o4)cnn23)c1)c1cccc(C(F)(F)F)c1 [Example 316, N-(3-{3-[5-(pyrrolidin-1-ylmethyl)-2-furyl]pyrazolo[1,5-a]pyrimidin-7-yl}phenyl)-3-(trifluoromethyl)benzamide] | 541 | 92 | – | – | –
O=C(Nc1ccc(F)c(-c2ccnc3ccnn23)c1)c1cccc(C(F)(F)F)c1 [Example 318, N-(4-fluoro-3-pyrazolo[1,5-a]pyrimidin-7-ylphenyl)-3-(trifluoromethyl)benzamide] | 3550 | 59 | – | – | –
N-{3-[3-(4-methoxyphenyl)pyrazolo[1,5-a]pyrimidin-7-yl]phenyl}-3-(trifluoromethyl)benzamide [Example 159] | > 10000 | – | – | – | 5

Results, then the compound that gave them:

IC50 [1, 2] [nM] | inhibition at 10 µM [1] [%] | melting point [°C] | IC50 [1] [nM] | % Inhib./10 uM [1] [%] | Compound
1330 | 63 | 183 to 185 | – | – | CN1CCC(c2cnn3c(-c4cccc(NC(=O)c5cccc(C(F)(F)F)c5)c4)ccnc23)CC1 [Example 309, N-{3-[3-(1-methylpiperidin-4-yl)pyrazolo[1,5-a]pyrimidin-7-yl]phenyl}-3-(trifluoromethyl)benzamide]
– | 77 | – | 578 | – | COc1ccc(-c2cnn3c(-c4cccc(NC(=O)c5cccc(C(F)(F)F)c5)c4)ccnc23)cn1 [Example 312, N-{3-[3-(6-methoxypyridin-3-yl)pyrazolo[1,5-a]pyrimidin-7-yl]phenyl}-3-(trifluoromethyl)benzamide]
> 10000 | 78 | – | – | – | O=Cc1ccc(-c2cnn3c(-c4cccc(NC(=O)c5cccc(C(F)(F)F)c5)c4)ccnc23)o1 [Example 313, N-{3-[3-(5-formyl-2-furyl)pyrazolo[1,5-a]pyrimidin-7-yl]phenyl}-3-(trifluoromethyl)benzamide]
514 | 82 | – | – | – | O=C(O)c1cccc(-c2cnn3c(-c4cccc(NC(=O)c5cccc(C(F)(F)F)c5)c4)ccnc23)c1 [Example 314, 3-[7-(3-{[3-(trifluoromethyl)benzoyl]amino}phenyl)pyrazolo[1,5-a]pyrimidin-3-yl]benzoic acid]
42.3 | 100 | – | – | – | O=C(Nc1ccc(F)c(-c2ccnc3cc(-c4ccncc4)nn23)c1)c1cccc(C(F)(F)F)c1 [Example 317, N-[4-fluoro-3-(2-pyridin-4-ylpyrazolo[1,5-a]pyrimidin-7-yl)phenyl]-3-(trifluoromethyl)benzamide]
> 10000 | – | – | – | 12 | ethyl 7-{3-[(pyridin-3-ylcarbonyl)amino]phenyl}pyrazolo[1,5-a]pyrimidine-3-carboxylate [Example 204]
> 10000 | – | – | – | 0 | ethyl 7-{3-[({[(ethoxycarbonyl)phenyl]amino}carbonyl)amino]phenyl}pyrazolo[1,5-a]pyrimidine-3-carboxylate [Example 15]
